From PMC7464559, “Synthesis, Optimization, Antifungal Activity, Selectivity, and CYP51 Binding of New 2-Aryl-3-azolyl-1-indolyl-propan-2-ols” (Pharmaceuticals, 2020)
Values after ≈ are worked out from the molar mass of the structure shown.

Columns and labels:
[1] = biological target: T1, retinoic acid 4-hydroxylase (CYP26A1) (Homo sapiens, UniProt O43174); test: MCF-7 cellular assay for inhibition of metabolism of all-trans retinoic acid; type: cell-based; conditions: mean (±5%) of two experiments
T1 construct: endogenous in cells; host or cells: MCF-7 human breast cancer cells
T1 sequence (O43174 1-497): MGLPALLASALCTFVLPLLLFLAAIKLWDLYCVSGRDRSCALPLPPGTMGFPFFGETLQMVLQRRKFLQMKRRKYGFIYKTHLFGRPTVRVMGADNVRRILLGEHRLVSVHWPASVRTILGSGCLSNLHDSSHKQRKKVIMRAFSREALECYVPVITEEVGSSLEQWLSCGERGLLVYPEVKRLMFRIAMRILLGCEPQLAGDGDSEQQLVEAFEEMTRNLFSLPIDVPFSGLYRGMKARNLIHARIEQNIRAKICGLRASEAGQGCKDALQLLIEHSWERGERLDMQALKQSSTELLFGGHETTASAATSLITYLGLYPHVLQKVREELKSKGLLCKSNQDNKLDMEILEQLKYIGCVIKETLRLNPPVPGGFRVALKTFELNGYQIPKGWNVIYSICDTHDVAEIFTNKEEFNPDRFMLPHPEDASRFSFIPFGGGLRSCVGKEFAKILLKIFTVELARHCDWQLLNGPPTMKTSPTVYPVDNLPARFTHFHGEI
Method: The HPLC system was equipped with a high-pressure pump (Milton–Roy pump, Stone, UK), injector with a 50 μL loop connected to a beta-RAM radioactivity detector, connected to a Compaq™ computer running Laura® data acquisition and analysis software. This enabled online detection and quantification of radioactive peaks. The 10 μM C18 μBondapak™ 3.9 × 300 mm HPLC column (Waters, UK) was used for the all-trans retinoic acid metabolism studies. The HPLC column operating at an ambient temperature was used to separate the metabolites, which were eluted with acetonitrile/1% ammonium acetate in water/acetic acid (75:25:0.1, v/v/v) at a flow rate of 1.9 mL/min. The Ecoscint™ was used as the flow scintillation fluid.
The separated [^3H]-metabolites were quantitatively calculated from the areas under the curves.

[2] = test system: human fetal lung fibroblast (MRC-5) cells; parameters: method as in PMID 31899979; conditions: previously determined ref 28, read-out: Cytotoxicity IC50 on MRC-5 cells; cited from earlier work
C. krusei = test: Anti-Candida in vitro assay, C. krusei strains; type: cell-based; conditions: Pichia kudriavzevii; span over the C. krusei strains tested
Method: Test fungal strains were obtained from the American Type Culture Collection (ATCC) or were clinical isolates from the Laboratory of Parasitology and Medical Mycology, Centre Hospitalier Universitaire (CHU) of Nantes. The strains were maintained on Sabouraud agar slants and were subcultured 24 h before used. The activity of the target compounds 8a–g and 11a–m was determined by the method previously described. Briefly, molecules were diluted in RPMI 1640 medium supplemented with 0.165 M morpholinopropanesulphonic acid (Sigma-Aldrich, Saint-Quentin Fallavier, France), 2% glucose, and antibiotics. Candida suspensions were prepared in RPMI 1640 medium (Sigma-Aldrich, Saint-Quentin Fallavier, France) adjusted to give a final concentration of 10^3 cells/mL, and a 96-well microplate (Nunc, D. Dutscher, Brumath, France) was seeded with 100 µL. Each concentration of molecules (100 µL) to be tested was added (in triplicate) and plates were incubated at 37 °C for 24 h. The cellular viability was evaluated on the Fluorolite 1000 (Dynatech, France) with an excitation at 550 nm and an emission at 590 nm after a 4 h incubation with 10 µL of Alamar Blue®. […] MIC was expressed as the mean of the triplicate values. KTC and FLC were used as standards.

IC50 [1] [µM] | melting point [°C] | MIC (C. krusei) [µg/mL] | Structure (SMILES) | IC50 [2] [µM]
34 | – | – | O[C@@](Cn1cncn1)(Cn1ccc2ccccc21)c1ccc(Cl)cc1Cl [(+)-(R)-8g] | –
– | 161 to 162 | – | OC(Cn1cncn1)(Cn1ccc2ccccc21)c1ccc(Cl)cc1Cl (centres unmarked) [Compound 8g, 2-(2,4-Dichlorophenyl)-3-(1H-indol-1-yl)-1-(1H-1,2,4-triazol-1-yl)-propan-2-ol] | 35
18 | – | 0.039 to 0.167 (≈ 0.101 to 0.431 µM) | O[C@](Cn1cncn1)(Cn1ccc2ccccc21)c1ccc(Cl)cc1Cl [(−)-(S)-8g] | –
